Here are results for six molecules from article PMC9764201, “Half-calcified calmodulin promotes basal activity and inactivation of the L-type calcium channel CaV1.2” (The Journal of Biological Chemistry, 2022).

By Kd is commonly meant the constant that tells how readily two partners part at equilibrium. The low end stands for tighter binding, the high end for weaker binding.

Ends that are not written are not given here.

The target in one test is T1, Ca2/CaM12’ (Xenopus laevis, UniProt P0DP33, D21A/D23A/D25A/D57A/D59A/E32Q/E68Q/N61A).
T1 construct: made in house; host or cells: E. coli BL21(DE3) Codon Plus, pET11d
In words: ITC of Ca2/CaM12’ binding to IQ peptides. The conditions noted are these: 27 °C; for n-value (stoichiometry) / ΔH: SD from three independent trials.

The target in test [1] is fluorescein-labeled CaV1.2 IQ peptide Y1657D (rat). In words: fluorescence polarisation; fluorescein-labeled peptide (100 nM) titrated with apoCaM in Ca2+-free buffer: 20 mM Tris, pH 7.4, 100 mM KCl, 1 mM MgCl2, 2.0 mM EGTA. (In general: In fluorescence polarisation assays a small probe gives low polarisation when free and higher when bound to something large.)

As to `CC[C@H](C)[C@H](NC(=O)[C@H](CC(C)C)NC(=O)[C@H](Cc1ccccc1)NC(=O)[C@@H](NC(=O)[C@H](C)NC(=O)[C@H](Cc1ccc(O)cc1)NC(=O)[C@H](Cc1ccccc1)NC(=O)[C@H](CCCCN)NC(=O)CNC(=O)[C@@H](NC(=O)[C@@H](N)[C@@H](C)O)C(C)C)[C@@H](C)O)C(=O)N[C@@H](CCC(N)=O)C(=O)N[C@@H](CCC(=O)O)C(=O)N[C@@H](Cc1ccc(O)cc1)C(=O)N[C@@H](CC(=O)O)C(=O)N[C@@H](CCCNC(=N)N)C(=O)N[C@@H](CCCCN)C(=O)N[C@@H](Cc1ccccc1)C(=O)N[C@@H](CCCCN)C(=O)N[C@@H](CCCCN)C(=O)N[C@@H](CCCNC(=N)N)C(=O)O` [IQ^F1658D], on Ca2/CaM12’, the “binding to Ca2/CaM12’ compared to IQ^WT” value is on record as “weaker binding”, the “n-value (stoichiometry)” value is on record as 0.8 ± 0.5 and the ΔH was -5.9 ± 0.7 kcal/mol. In the case of `CC(C)C[C@H](NC(=O)[C@H](Cc1ccccc1)NC(=O)[C@@H](NC(=O)[C@H](C)NC(=O)[C@H](Cc1ccc(O)cc1)NC(=O)[C@H](Cc1ccccc1)NC(=O)[C@H](CCCCN)NC(=O)CNC(=O)[C@@H](NC(=O)[C@@H](N)[C@@H](C)O)C(C)C)[C@@H](C)O)C(=O)N[C@@H](C)C(=O)N[C@@H](CCC(N)=O)C(=O)N[C@@H](CCC(=O)O)C(=O)N[C@@H](Cc1ccc(O)cc1)C(=O)N[C@@H](Cc1ccccc1)C(=O)N[C@@H](CCCNC(=N)N)C(=O)N[C@@H](CCCCN)C(=O)N[C@@H](Cc1ccccc1)C(=O)N[C@@H](CCCCN)C(=O)N[C@@H](CCCCN)C(=O)N[C@@H](CCCNC(=N)N)C(=O)O` [IQ^I1654A], the “binding to Ca2/CaM12’ compared to IQ^WT” value on Ca2/CaM12’ is reported as “weaker binding”.

Consider `CC[C@H](C)[C@H](NC(=O)[C@H](CC(C)C)NC(=O)[C@H](Cc1ccccc1)NC(=O)[C@@H](NC(=O)[C@H](C)NC(=O)[C@H](C)NC(=O)[C@H](Cc1ccccc1)NC(=O)[C@H](CCCCN)NC(=O)CNC(=O)[C@@H](NC(=O)[C@@H](N)[C@@H](C)O)C(C)C)[C@@H](C)O)C(=O)N[C@@H](CCC(N)=O)C(=O)N[C@@H](CCC(=O)O)C(=O)N[C@@H](Cc1ccc(O)cc1)C(=O)N[C@@H](Cc1ccccc1)C(=O)N[C@@H](CCCNC(=N)N)C(=O)N[C@@H](CCCCN)C(=O)N[C@@H](Cc1ccccc1)C(=O)N[C@@H](CCCCN)C(=O)N[C@@H](CCCCN)C(=O)N[C@@H](CCCNC(=N)N)C(=O)O` [IQ^Y1649A], for which, at Ca2/CaM12’, the “binding to Ca2/CaM12’ compared to IQ^WT” value is “weaker binding”, the “n-value (stoichiometry)” value is listed as 0.88 ± 0.25 and the ΔH was -9.7 ± 0.2 kcal/mol. Consider `CC[C@H](C)[C@H](NC(=O)[C@H](CC(C)C)NC(=O)[C@H](Cc1ccccc1)NC(=O)[C@@H](NC(=O)[C@H](C)NC(=O)[C@H](Cc1ccc(O)cc1)NC(=O)[C@H](Cc1ccccc1)NC(=O)[C@H](CCCCN)NC(=O)CNC(=O)[C@@H](NC(=O)[C@@H](N)[C@@H](C)O)C(C)C)[C@@H](C)O)C(=O)N[C@@H](CCC(N)=O)C(=O)N[C@@H](CCC(=O)O)C(=O)N[C@@H](CC(=O)O)C(=O)N[C@@H](Cc1ccccc1)C(=O)N[C@@H](CCCNC(=N)N)C(=O)N[C@@H](CCCCN)C(=O)N[C@@H](Cc1ccccc1)C(=O)N[C@@H](CCCCN)C(=O)N[C@@H](CCCCN)C(=O)N[C@@H](CCCNC(=N)N)C(=O)O` [IQ^Y1657D], for which, at Ca2/CaM12’, the “binding to Ca2/CaM12’ compared to IQ^WT” value is recorded as “weaker binding”. On to TVGKFYATFLIQEYARKFKKR [IQ^F1658A], for which, on Ca2/CaM12’, the “n-value (stoichiometry)” value was 1.0 ± 0.25 and the ΔH was -9.5 ± 0.2 kcal/mol. Take “apoCaM (Ca2+-free calmodulin) (from UniProt P0DP33 1-149) (natural protein)”: the dissociation constant (Kd) in test [1] was determined as 60 µM.
